Results published in patent publication US7927849B2, “Laccase enzyme and use thereof” (AB Enzymes OY, priority 2004, dated 2011).
Like-named read-outs stand apart in the source and are kept apart here.

Key:
[1] = target: T1, Melanocarpus albomyces laccase MaL (Melanocarpus albomyces, UniProt Q70KY3); assay: Kinetic parameters of Melanocarpus albomyces laccase MaL (comparison); type: biochemical
T1 sequence (Q70KY3 51-609): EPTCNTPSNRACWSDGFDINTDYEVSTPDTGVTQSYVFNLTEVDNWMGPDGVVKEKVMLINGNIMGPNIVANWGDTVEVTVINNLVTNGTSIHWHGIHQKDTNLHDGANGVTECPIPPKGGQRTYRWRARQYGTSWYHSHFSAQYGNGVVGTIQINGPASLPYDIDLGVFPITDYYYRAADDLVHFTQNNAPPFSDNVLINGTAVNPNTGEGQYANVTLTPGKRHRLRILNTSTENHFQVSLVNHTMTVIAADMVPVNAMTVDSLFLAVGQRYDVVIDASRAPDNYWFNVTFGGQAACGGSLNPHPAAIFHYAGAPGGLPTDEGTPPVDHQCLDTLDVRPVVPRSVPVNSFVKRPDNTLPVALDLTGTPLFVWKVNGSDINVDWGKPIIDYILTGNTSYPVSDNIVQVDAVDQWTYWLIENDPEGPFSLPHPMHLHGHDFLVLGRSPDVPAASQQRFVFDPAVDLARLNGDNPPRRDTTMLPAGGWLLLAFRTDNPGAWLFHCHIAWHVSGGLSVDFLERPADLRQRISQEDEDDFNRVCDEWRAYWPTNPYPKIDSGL
Experimental: (§1) On syringaldazin and DMP 40 mM MES buffer, pH 6 and 25 mM succinate buffer. All activity assays were carried out at 25° C. Kinetic parameters were estimated by a nonlinear regression curve fit. The values were compared to those of Melanocarpus albomyces MaL, laccase.

[2] = Denim bleaching: laccase-mediator (100 nkat/g, 5 mg/g, 30 min, 60° C.) compared to sodium hypochlorite (15 min, 40° C.)
Experimental: Different types of demin were treated with a TaLcc1 laccase product from Trichoderma strain RF5597 and DeniLite II Base from Novozymes and the results obtained were compared to hypochlorite bleaching. All together 27 pieces of different kinds of denim (whole jeans), which had been previously washed with cellulase after desizing to different abrasion levels or had been only desized with ECOSTONE®A200 (60° C., 10 min), were collected for the test (Table 15). The jeans were made of Indigo dyed denim, except the English jeans contained Indigo dyed denim with sulphur bottom. Jeans were cut in such a way that pieces from the same pair of jeans could be used for all tests.
The jeans were made of Indigo dyed denim (right hand twill), except the English jeans contained Indigo dyed denim with sulphur bottom. The weights of the original (i.e. not desized) denim fabrics were typically higher than 475 g/m^2 (14 oz/yd^2). The weights of three 10 cm×10 cm pieces were measured after 24 hours incubation at room temperature (ca. 22° C. and at relative moisture ca. 64%).
The laccase treatments were performed with Electrolux's Wascator FOM 71 CLS washer extractor under optimal conditions for each enzyme, described in Table 16. Methyl syringate (Example 7) was used as a mediator. Laccase was inactivated after draining by raising the pH above 11 by NaOH (10 min, 60° C.) and rinsing for three times. The fabrics were dried in a tumbler.
The sodium hypochlorite bleaching was performed with Electrolux's Wascator FOM 71 CLS washer extractor using denim obtained from the same jeans as in laccase treatments under conditions described in Table 17. Sodium hydroxide was added before adding 25 ml/l of 10% sodium hypochlorite solution (Klorite Forte, Farmos Oy) to keep the pH above 10.5 during the treatment. After draining the bleach liquor, there was one 2 minutes rinsing step with the liquor ratio of 1:20 before dechlorinating with sodium thiosulphate. After dechlorinating the denim samples were rinsed 3 times for 2 minutes with the liquor ratio of 1:20. The fabrics were dried in a tumbler.
The bleaching effect was evaluated by measuring the colour as reflectance values as in Example 7. […] Different looks were obtained depending on the type of the denim and cellulase treatment used. “Sulphur-bottom type” denim was the most difficult to bleach.

[3] = target: T2, Thielavia arenaria ALKO4197 laccase TaLcc1, recombinant (rTaLcc1, expressed in Trichoderma reesei), SEQ ID NO: 12 (Canariomyces arenarius, UniProt F6N9E7); type: biochemical
T2 construct: predicted mature residues 22-604; no tag stated
T2 sequence (F6N9E7 with tags, fused parts or gaps): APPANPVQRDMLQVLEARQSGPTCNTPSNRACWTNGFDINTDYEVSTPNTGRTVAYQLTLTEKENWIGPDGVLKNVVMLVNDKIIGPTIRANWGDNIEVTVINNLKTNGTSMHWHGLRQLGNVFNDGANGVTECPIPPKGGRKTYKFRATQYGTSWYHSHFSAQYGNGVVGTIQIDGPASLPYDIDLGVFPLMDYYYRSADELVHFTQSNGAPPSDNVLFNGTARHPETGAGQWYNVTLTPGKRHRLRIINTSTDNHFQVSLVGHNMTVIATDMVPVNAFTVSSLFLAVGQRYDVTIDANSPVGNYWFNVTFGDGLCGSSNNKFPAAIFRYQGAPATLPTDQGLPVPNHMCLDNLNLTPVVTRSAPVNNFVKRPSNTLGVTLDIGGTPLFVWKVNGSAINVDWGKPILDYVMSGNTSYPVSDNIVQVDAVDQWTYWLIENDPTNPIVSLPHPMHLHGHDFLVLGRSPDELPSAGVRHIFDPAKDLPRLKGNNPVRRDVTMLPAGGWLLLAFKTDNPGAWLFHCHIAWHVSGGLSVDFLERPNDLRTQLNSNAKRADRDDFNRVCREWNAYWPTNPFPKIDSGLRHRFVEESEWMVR
Experimental: as §1

[4] = substrate: COc1cc(/C=N/N=C/c2cc(OC)c(O)c(OC)c2)cc(OC)c1O; assay: purified protein, by the assay type; type: biochemical, Thielavia arenaria; details: other: syringaldazin and DMP, 40 mM MES buffer, pH 6 and 25 mM succinate buffer, 25° C.
Experimental: as §1

[5] = syringaldazin and DMP, 40 mM MES buffer, pH 6 and 25 mM succinate buffer, 25° C.
[6] = sample B1: Basic Jeans, Ecostone P1250
[7] = sample E1: English jeans (sulphur bottom), desized only
[8] = sample E2: English jeans, Ecostone NP2000
[9] = sample E3: English jeans, Rocksoft NCE-EA
[10] = sample E4: English jeans, Rocksoft NCE-2X
[11] = sample E5: English jeans, Ecostone L900
[12] = sample E6: English jeans, Ecostone L900
[13] = sample E7: English jeans, Ecostone L900
[14] = sample L1: Lee Cooper jeans, desized only
[15] = sample L2: Lee Cooper jeans, Ecostone L
[16] = sample L3: Lee Cooper jeans, Biotouch C29
[17] = sample L4: Lee Cooper jeans, Ecostone L
[18] = sample L5: Lee Cooper jeans, Indiage Max L
[19] = sample L6: Lee Cooper jeans, Indiage Super L
[20] = sample L7: Lee Cooper jeans, Ecostone CXP500 Exper.
[21] = sample L8: Lee Cooper jeans, Ecostone CXP experimental
[22] = sample L9: Lee Cooper jeans, Ecostone N400
[23] = sample T1: Tincan jeans, desized only
[24] = sample T2: Tincan jeans, Ecostone N400
[25] = sample T3: Tincan jeans, Ecostone L300
[26] = sample T4: Tincan jeans, Denimax 991S
[27] = sample W1: Warric jeans, desized only
[28] = sample W2: Warric jeans, Ecostone P4500
[29] = sample W3: Warric jeans, Indiage Max G
[30] = sample W4: Warric jeans, Ecostone NP2000
[31] = sample W5: Warric jeans, Ecostone L900
[32] = sample W6: Warric jeans, Denabraide MBL 65 E
[33] = ABTS, 25 mM succinate buffer, pH 4.5, 25° C.

COc1cc(/C=N/N=C/c2cc(OC)c(O)c(OC)c2)cc(OC)c1O [Syringaldazin, syringaldazine]
kcat [1, 5]: 78.5 s⁻¹

OCl [sodium hypochlorite, reference compound]
L* after treatment [2, 6]: 40.62
b* after treatment [2, 6]: −17.37
L* after treatment [2, 7]: 21.91
b* after treatment [2, 7]: −15.03
L* after treatment [2, 8]: 33.30
b* after treatment [2, 8]: −16.43
Increase of L* [2, 9]: 9.40
L* after treatment [2, 9]: 34.13
b* after treatment [2, 9]: −16.73
L* after treatment [2, 10]: 35.83
b* after treatment [2, 10]: −16.86
L* after treatment [2, 11]: 33.85
b* after treatment [2, 11]: −16.48
L* after treatment [2, 12]: 30.61
b* after treatment [2, 12]: −16.65
L* after treatment [2, 13]: 32.36
b* after treatment [2, 13]: −16.75
L* after treatment [2, 14]: 31.23
b* after treatment [2, 14]: −20.83
L* after treatment [2, 15]: 44.11
b* after treatment [2, 15]: −18.60
L* after treatment [2, 16]: 39.71
b* after treatment [2, 16]: −19.67
L* after treatment [2, 17]: 40.63
b* after treatment [2, 17]: −19.25
L* after treatment [2, 18]: 39.47
b* after treatment [2, 18]: −19.48
L* after treatment [2, 19]: 41.50
b* after treatment [2, 19]: −18.68
L* after treatment [2, 20]: 37.91
b* after treatment [2, 20]: −19.85
L* after treatment [2, 21]: 40.74
b* after treatment [2, 21]: −19.12
L* after treatment [2, 22]: 40.82
b* after treatment [2, 22]: −18.82
L* after treatment [2, 23]: 33.97
b* after treatment [2, 23]: −17.95
L* after treatment [2, 24]: 34.38
b* after treatment [2, 24]: −18.22
L* after treatment [2, 25]: 40.33
b* after treatment [2, 25]: −18.30
L* after treatment [2, 26]: 37.66
b* after treatment [2, 26]: −18.58
L* after treatment [2, 27]: 27.75
b* after treatment [2, 27]: −18.76
L* after treatment [2, 28]: 39.35
b* after treatment [2, 28]: −17.39
L* after treatment [2, 29]: 41.11
b* after treatment [2, 29]: −16.79
L* after treatment [2, 30]: 38.07
b* after treatment [2, 30]: −17.33
L* after treatment [2, 31]: 37.12
b* after treatment [2, 31]: −18.03
L* after treatment [2, 32]: 36.65
b* after treatment [2, 32]: −17.95

COc1cccc(OC)c1O [DMP, 2,6-dimethoxy phenol]
kcat [3, 5]: 67.17 s⁻¹
kcat [1, 5]: 69.33 s⁻¹

CCn1c(=NN=c2sc3cc(S(=O)(=O)O)ccc3n2CC)sc2cc(S(=O)(=O)O)ccc21 [ABTS, 2,2′azinobis-3-ethylbenzthiazole-6-sulphonate]
Km [3, 33]: 75 µM
kcat [3, 33]: 68.83 s⁻¹
kcat ([1]; pH 4.5): 78.17 s⁻¹

B1: Thielavia arenaria ALKO4197 laccase TaLcc1, recombinant (rTaLcc1, expressed in Trichoderma reesei), SEQ ID NO: 12 (Canariomyces arenarius) (protein)
chain: APPANPVQRDMLQVLEARQSGPTCNTPSNRACWTNGFDINTDYEVSTPNTGRTVAYQLTLTEKENWIGPDGVLKNVVMLVNDKIIGPTIRANWGDNIEVTVINNLKTNGTSMHWHGLRQLGNVFNDGANGVTECPIPPKGGRKTYKFRATQYGTSWYHSHFSAQYGNGVVGTIQIDGPASLPYDIDLGVFPLMDYYYRSADELVHFTQSNGAPPSDNVLFNGTARHPETGAGQWYNVTLTPGKRHRLRIINTSTDNHFQVSLVGHNMTVIATDMVPVNAFTVSSLFLAVGQRYDVTIDANSPVGNYWFNVTFGDGLCGSSNNKFPAAIFRYQGAPATLPTDQGLPVPNHMCLDNLNLTPVVTRSAPVNNFVKRPSNTLGVTLDIGGTPLFVWKVNGSAINVDWGKPILDYVMSGNTSYPVSDNIVQVDAVDQWTYWLIENDPTNPIVSLPHPMHLHGHDFLVLGRSPDELPSAGVRHIFDPAKDLPRLKGNNPVRRDVTMLPAGGWLLLAFKTDNPGAWLFHCHIAWHVSGGLSVDFLERPNDLRTQLNSNAKRADRDDFNRVCREWNAYWPTNPFPKIDSGLRHRFVEESEWMVR
notes: predicted mature residues 22-604; no tag stated
Km [4]: 4.3 µM
kcat [4]: 32.3 s⁻¹
kcat/Km [4]: 7.52e+06 M⁻¹ s⁻¹
